Measurements published in US6620821B2, “HMG-CoA reductase inhibitors and method” (Bristol-Myers Squibb Company, priority 2000, dated 2003).

melting point: 253 to 254 °C
SMILES: CC(C)c1nc2c(c(-c3ccc(F)cc3)c1CC[C@@H](O)C[C@@H](O)CC(=O)[O-])CCCc1ccccc1-2.[Na+]
